US4614746A, “5-fluorobenzonitrile derivatives for increasing the lean meat to fat ratio and/or enhancing the growth rate of warm-blooded animals” (American Cyanamid Company, priority 1985, dated 1986)

Assays:
[1] = in words; cited from earlier work
[2] = target: T1, beta-1 adrenergic receptor (Meleagris gallopavo, UniProt P07700); test: Beta-1 adrenergic activity, (H3) dihydroalprenolol radioligand binding to erythrocyte membranes; parameters: species or system turkey and rat; conditions: (H3) DHA, room temperature (23° C.), one hour; read-out: β1 K-50 (concentration required to displace 50% radioactive ligand from binding sites of beta adrenergic receptors)
T1 construct: Beta-1 adrenergic receptor membranes are isolated from turkey and rat erythrocytes; from tissue; host or cells: erythrocyte membranes from freshly drawn turkey blood (rat blood also given)
T1 sequence (P07700 whole entry): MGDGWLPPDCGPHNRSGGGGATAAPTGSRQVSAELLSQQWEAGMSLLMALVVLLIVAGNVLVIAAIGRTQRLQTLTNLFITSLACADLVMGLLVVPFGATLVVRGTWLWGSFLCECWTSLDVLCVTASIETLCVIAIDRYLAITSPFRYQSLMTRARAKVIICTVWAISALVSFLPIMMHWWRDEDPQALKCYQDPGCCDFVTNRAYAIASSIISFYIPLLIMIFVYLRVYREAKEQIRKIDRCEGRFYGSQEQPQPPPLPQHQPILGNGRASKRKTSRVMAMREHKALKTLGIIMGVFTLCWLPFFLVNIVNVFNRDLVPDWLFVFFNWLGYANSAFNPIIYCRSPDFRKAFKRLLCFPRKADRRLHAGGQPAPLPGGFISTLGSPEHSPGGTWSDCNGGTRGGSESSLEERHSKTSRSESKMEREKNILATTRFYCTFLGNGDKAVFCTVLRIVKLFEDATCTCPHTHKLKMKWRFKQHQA
Experimental: Beta-1 adrenergic activity of experimental compounds is identified by radioactive ligand-binding studies by using beta adrenergic receptor membranes and adrenergic antagonist (H3) dihydroalprenolol (DHA). Binding of (H3) DHA to membrane fractions is assayed by filtration on glass fiber filters. Specific binding is defined as total radioactivity bound minus nonspecific bound radioactivity, i.e., binding in the presence of 100 μM nonradioactive DHA. Results are expressed as the concentrations of the compound required to displace 50% radioactive ligand from binding of beta adrenergic receptors (K-50).
In these tests, beta adrenergic receptor membranes are incubated with radioactive dihydroalprenolol (H3 DHA) and experimental compounds. The bound radio-ligand is separated by filtration on glass fiber filters and counted by scintillation counter.
Radioactive ligand, H3 dihydroalprenolol (DHA) and aquasol are purchased from New England Nuclear Corporation, DMSO is supplied by J. T. Baker Company, and all other chemicals are obtained from Sigma Chemical Company.
Beta-1 adrenergic receptor membranes are isolated from turkey and rat erythrocytes respectively using the procedures of:
Freshly drawn heparinized whole blood from turkeys and rats is centrifuged for five minutes (4×500 g). The plasma is withdrawn; the remaining erythrocytes are suspended in 150 mM sodium chloride solutions and centrifuged. The cells are resuspended and centrifuged twice more. The cells are hemolyzed in 10 volume of cold distilled water containing 2 mM dithiothreitol, 100 μM phenylmethyl sulfonyl fluoride, 5 μg/mL leupeptin, 200 μg/mL bacitacin, 0.1% bovine serum albumin, and 10 units/mL aprotonin, and centrifuged at 3000×g for five minutes. The bottom gelatin layer is discarded. The top layer is suspended and centrifuged five times at 3000×g and resuspended in tris buffer (145 mM NaCl, 1 mM ethylene glycol-bis(β-aminoethyl ether) N,N,N,N, tetraacetic acid, 2 mM MgCl2, 10 mM tris, and 10% glycerol, pH 7.4). The resuspended membranes are further purified with differential centrifugation by using sucrose albumin cushion, and subsequently stored in small aliquots at -70° C. The protein concentration of receptor membranes is determined by the biuret method.
To duplicate incubation, tubes are added 200 μl suspended membranes (200 μg protein), 25 μl of compound in solution or buffer and 25 μl (H3) dihydroalprenolol (200,000 CPM). Tubes were incubated at room temperature (23° C.) for an hour and then filtered rapidly under vacuum through Whatman GF/B filters. The filters are rinsed three times with 5 mL of cold buffer (145 mM NaCl, 1 mM ethylenediaminetetraacetic acid, and 10 mM tris, pH 7.4) and subsequently counted by liquid scintillation counter in 10 mL of aquasol. Specific binding of H3 DHA is defined as the excess over blank containing 100 μM nonradioactive DHA. Six serial dilutions of each compound are tested.
Beta adrenergic activity is inversely related to K-50 (the concentrations of the compound required to displace 50% radioactive ligand from binding sites of beta adrenergic receptors, i.e., 50% binding) value.

Compound | bronchodilator activity [1] | heart stimulant activity [1] | IC50 [2] [µM]
CC(C)(C)NCC(O)c1cc(Cl)c(N)c(Cl)c1 (stereo not shown) [Clenbuterol] | very effective bronchodilator | potent heart | –
CCCC(C)NCC(O)c1cc(F)cc(C#N)c1 (stereo not shown) [drawing 19] | – | – | 2.2
CC(C)N(CC(O)c1cc(F)cc(C#N)c1)C(C)C (stereo not shown) [drawing 20] | – | – | 2.95
CCNCC(O)c1cc(F)cc(C#N)c1 (stereo not shown) [drawing 21] | – | – | 3.04
CC(C)NCC(O)c1cc(F)cc(C#N)c1 (stereo not shown) [drawing 22] | – | – | 12.3
CC(C)(C)NCC(O)c1cc(F)cc(C#N)c1 (stereo not shown) [drawing 23] | – | – | 16.6
